Results published in patent US20240382438A1, “Calcium Channel Blockers and Methods Thereof” (University of Maryland, Eastern Shore, priority 2023, published 2024).
“Also recorded” adds a separate entry of the source.

Key:
human Cav3.2 = molecular target: T1, human Cav3.2 (Homo sapiens, UniProt O95180); assay: Whole-cell patch clamp of T-type Ca2+ currents in Cav3.2-stable transfected HEK 293 cells; format: cell-based
T1 construct: host or cells: HEK 293
Description: Certain exemplary embodiments have undergone target identification studies to discover a better officious T-type calcium blocker. The fourteen trifluoromethylated N-benzamide enaminone compounds were synthesized, purified, and structure confirmed using gas chromatography/mass spectroscopy, nuclear magnetic resonance, and elemental analysis. Preliminary in vitro whole cell patch clamp experiments were performed to assess the inhibitory effects of several target analogs on voltage-activated calcium currents in human embryonic kidney (HEK-293) cells. Cav3.2 transfected HEK 293 cells were treated with 50 μM of test compounds and compared to the control group (none pretreated HEK 293 cells).
(§1) ND7/23 cells are derived from the fusion of mouse neuroblastoma and rat dorsal root ganglion cells, which generates a more homogeneous sensory neuron-like cell population. ND7/23 cells were purchased from Sigma-Aldrich (RRID:CVCL_4259). Culture and differentiation of ND7/23 cells was performed as previously described. Briefly, ND7/23 cells were cultured in DMEM/F12 culture media (Millipore, Cat. #DF-041-B), supplemented with 0.5% fetal bovine serum (Invitrogen, Cat. #10437010), db-cAMP (1 mM, Sigma-Aldrich, Cat. #D0627), and nerve growth factor (NGF, 50 ng/mL, Sigma-Aldrich, Ca. #N2513). To remove any proliferating cells, cultures were treated with uridine (20 μM, Sigma-Aldrich, Cat. #U3003) and fluorodeoxyuridine (20 μM, Sigma-Aldrich, Cat. #F0503). Cells were maintained in differentiation media without uridine and fluorodeoxyuridin after induction of differentiation. ND7/23 cells were maintained in differentiation media for ≤6 days. HEK 293 cells that were stabled transfected with the human Cav3.2 and Cav3.3 channel subunits were a gift of Dr. E. Perez-Reyes (University of Virginia). Cav3.2 (or Cav3.3)-stabled transfected HEK 293 cells were culture in DMEM/F12 culture media, supplemented with 5% fetal bovine serum, 50 U/mL penicillin and 50 μg/mL streptomycin. ND7/23 and HEK 293 cells were grown in an incubator at 37° C. in the presence of 5% CO2/95% air humidified atmosphere. Cells passaged less than 20 times were used in this work. Cells were grown in poly-D-lysine-coated glass coverslips for electrophysiological recordings.
Whole cell recordings were performed as previously described. A Nikon Eclipse Ti inverted microscope equipped with Hoffman optics and epifluorescence filters was used to visualize individual cells. Recordings were performed at room temperature (22-24° C.) using glass electrodes made from thin wall borosilicate glass (3-5 MΩ). For electrophysiological recordings of inward Ca^2+ currents, outward K^+ currents were eliminated by equimolar substitution of K^+ with Cs^+ in the pipette solution, whereas inward Na^+ currents were eliminated by the use of TEA ions in the external solution, which are unable to go through voltage-gated Na^+ channels. The pipette solution consisted of (in mM) CsCl (120), MgCl2(2), HEPES (10), EGTA (10), ATP (1), and GTP (0.1), pH 7.4 with CsOH. The composition of the normal external saline used for measurements of Ca^2+ currents was (in mM): tetraethylammonium chloride (TEACl, 145), CaCl2 (10), MgCl2(1), HEPES (10), and glucose (5), pH 7.4 adjusted with CsOH. Ca^2+ currents were generated by applying a 200-500 ms-depolarizing step to various potentials from a holding potential of −100 mV. The external solution used to measure Na^+ currents contained (in mM) NaCl (145), KCl (5.3), CaCl2 (0.5), MgCl2 (5.7), HEPES (13), and glucose (5), pH 7.4 adjusted with KOH. The composition of the CsCl-pipette solution used to record Na^+ currents was the same describe above. Na^+ currents were generated by applying a 20 ms-depolarizing step to various potentials from a holding potential of −100 mV. To assess drug-evoked changes on specific ionic conductances, current amplitudes were expressed as current densities as previously reported. […]

[1] = system: voltage-activated Na^+ channels; assay: Whole-cell recording of Na+ currents in differentiated ND7/23 cells; format: cell-based, mouse neuroblastoma and rat dorsal root ganglion cells; details: 50 μM
Description: as §1
Whole cell recordings were performed as previously described. A Nikon Eclipse Ti inverted microscope equipped with Hoffman optics and epifluorescence filters was used to visualize individual cells. Recordings were performed at room temperature (22-24° C.) using glass electrodes made from thin wall borosilicate glass (3-5 MΩ). For electrophysiological recordings of inward Ca^2+ currents, outward K^+ currents were eliminated by equimolar substitution of K^+ with Cs^+ in the pipette solution, whereas inward Na^+ currents were eliminated by the use of TEA ions in the external solution, which are unable to go through voltage-gated Na^+ channels. […] To assess drug-evoked changes on specific ionic conductances, current amplitudes were expressed as current densities as previously reported. […] Cell capacitance was determined by integrating the transient current evoked by a 10-mV voltage step from a holding potential of −60 mV.
A MULTICLAMP 700A amplifier and PCLAMP software (Axon Instruments) was used to deliver voltage commands and to perform data acquisition and analysis. […] Only cells with stable seals and series resistance (≤10 MΩ) were analyzed. […]

T-type Ca^2+ channels = assay: Whole-cell recording of T-type Ca2+ currents in differentiated ND7/23 cells; format: cell-based, mouse neuroblastoma and rat dorsal root ganglion cells; details: for Effect on T-type Ca2+ current density: vs non-treated cells
Description: as §1
(§2) Whole cell recordings were performed as previously described. A Nikon Eclipse Ti inverted microscope equipped with Hoffman optics and epifluorescence filters was used to visualize individual cells. Recordings were performed at room temperature (22-24° C.) using glass electrodes made from thin wall borosilicate glass (3-5 MΩ). For electrophysiological recordings of inward Ca^2+ currents, outward K^+ currents were eliminated by equimolar substitution of K^+ with Cs^+ in the pipette solution, whereas inward Na^+ currents were eliminated by the use of TEA ions in the external solution, which are unable to go through voltage-gated Na^+ channels. The pipette solution consisted of (in mM) CsCl (120), MgCl2(2), HEPES (10), EGTA (10), ATP (1), and GTP (0.1), pH 7.4 with CsOH. The composition of the normal external saline used for measurements of Ca^2+ currents was (in mM): tetraethylammonium chloride (TEACl, 145), CaCl2 (10), MgCl2(1), HEPES (10), and glucose (5), pH 7.4 adjusted with CsOH. Ca^2+ currents were generated by applying a 200-500 ms-depolarizing step to various potentials from a holding potential of −100 mV. The external solution used to measure Na^+ currents contained (in mM) NaCl (145), KCl (5.3), CaCl2 (0.5), MgCl2 (5.7), HEPES (13), and glucose (5), pH 7.4 adjusted with KOH. The composition of the CsCl-pipette solution used to record Na^+ currents was the same describe above. Na^+ currents were generated by applying a 20 ms-depolarizing step to various potentials from a holding potential of −100 mV. To assess drug-evoked changes on specific ionic conductances, current amplitudes were expressed as current densities as previously reported. To assess current densities, cell size was normalized by dividing current amplitudes by cell capacitance. Cell capacitance was determined by integrating the transient current evoked by a 10-mV voltage step from a holding potential of −60 mV.
(§3) A MULTICLAMP 700A amplifier and PCLAMP software (Axon Instruments) was used to deliver voltage commands and to perform data acquisition and analysis. Pipette offset, whole cell capacitance, and series resistance were compensated automatically with the MultiClamp 700B Commander. Only cells with stable seals and series resistance (≤10 MΩ) were analyzed. Sampling rates were between 5 and 10 kHz. Leak currents were subtracted online using a P/4 protocol. […]

human Cav3.3 = molecular target: T2, human Cav3.3 (Homo sapiens, UniProt Q9P0X4); assay: Whole-cell patch clamp of T-type Ca2+ currents in Cav3.3-stable transfected HEK 293 cells; format: cell-based
T2 construct: host or cells: HEK 293
Description: as §1, §2, §3

[2] = 50 μM, differentiated ND7/23 cells
[3] = increasing concentrations 1-50 μM
[4] = 50 μM, HEK 293-Cav3.2 cells, vs non-treated cells

T1 sequence (O95180 whole entry): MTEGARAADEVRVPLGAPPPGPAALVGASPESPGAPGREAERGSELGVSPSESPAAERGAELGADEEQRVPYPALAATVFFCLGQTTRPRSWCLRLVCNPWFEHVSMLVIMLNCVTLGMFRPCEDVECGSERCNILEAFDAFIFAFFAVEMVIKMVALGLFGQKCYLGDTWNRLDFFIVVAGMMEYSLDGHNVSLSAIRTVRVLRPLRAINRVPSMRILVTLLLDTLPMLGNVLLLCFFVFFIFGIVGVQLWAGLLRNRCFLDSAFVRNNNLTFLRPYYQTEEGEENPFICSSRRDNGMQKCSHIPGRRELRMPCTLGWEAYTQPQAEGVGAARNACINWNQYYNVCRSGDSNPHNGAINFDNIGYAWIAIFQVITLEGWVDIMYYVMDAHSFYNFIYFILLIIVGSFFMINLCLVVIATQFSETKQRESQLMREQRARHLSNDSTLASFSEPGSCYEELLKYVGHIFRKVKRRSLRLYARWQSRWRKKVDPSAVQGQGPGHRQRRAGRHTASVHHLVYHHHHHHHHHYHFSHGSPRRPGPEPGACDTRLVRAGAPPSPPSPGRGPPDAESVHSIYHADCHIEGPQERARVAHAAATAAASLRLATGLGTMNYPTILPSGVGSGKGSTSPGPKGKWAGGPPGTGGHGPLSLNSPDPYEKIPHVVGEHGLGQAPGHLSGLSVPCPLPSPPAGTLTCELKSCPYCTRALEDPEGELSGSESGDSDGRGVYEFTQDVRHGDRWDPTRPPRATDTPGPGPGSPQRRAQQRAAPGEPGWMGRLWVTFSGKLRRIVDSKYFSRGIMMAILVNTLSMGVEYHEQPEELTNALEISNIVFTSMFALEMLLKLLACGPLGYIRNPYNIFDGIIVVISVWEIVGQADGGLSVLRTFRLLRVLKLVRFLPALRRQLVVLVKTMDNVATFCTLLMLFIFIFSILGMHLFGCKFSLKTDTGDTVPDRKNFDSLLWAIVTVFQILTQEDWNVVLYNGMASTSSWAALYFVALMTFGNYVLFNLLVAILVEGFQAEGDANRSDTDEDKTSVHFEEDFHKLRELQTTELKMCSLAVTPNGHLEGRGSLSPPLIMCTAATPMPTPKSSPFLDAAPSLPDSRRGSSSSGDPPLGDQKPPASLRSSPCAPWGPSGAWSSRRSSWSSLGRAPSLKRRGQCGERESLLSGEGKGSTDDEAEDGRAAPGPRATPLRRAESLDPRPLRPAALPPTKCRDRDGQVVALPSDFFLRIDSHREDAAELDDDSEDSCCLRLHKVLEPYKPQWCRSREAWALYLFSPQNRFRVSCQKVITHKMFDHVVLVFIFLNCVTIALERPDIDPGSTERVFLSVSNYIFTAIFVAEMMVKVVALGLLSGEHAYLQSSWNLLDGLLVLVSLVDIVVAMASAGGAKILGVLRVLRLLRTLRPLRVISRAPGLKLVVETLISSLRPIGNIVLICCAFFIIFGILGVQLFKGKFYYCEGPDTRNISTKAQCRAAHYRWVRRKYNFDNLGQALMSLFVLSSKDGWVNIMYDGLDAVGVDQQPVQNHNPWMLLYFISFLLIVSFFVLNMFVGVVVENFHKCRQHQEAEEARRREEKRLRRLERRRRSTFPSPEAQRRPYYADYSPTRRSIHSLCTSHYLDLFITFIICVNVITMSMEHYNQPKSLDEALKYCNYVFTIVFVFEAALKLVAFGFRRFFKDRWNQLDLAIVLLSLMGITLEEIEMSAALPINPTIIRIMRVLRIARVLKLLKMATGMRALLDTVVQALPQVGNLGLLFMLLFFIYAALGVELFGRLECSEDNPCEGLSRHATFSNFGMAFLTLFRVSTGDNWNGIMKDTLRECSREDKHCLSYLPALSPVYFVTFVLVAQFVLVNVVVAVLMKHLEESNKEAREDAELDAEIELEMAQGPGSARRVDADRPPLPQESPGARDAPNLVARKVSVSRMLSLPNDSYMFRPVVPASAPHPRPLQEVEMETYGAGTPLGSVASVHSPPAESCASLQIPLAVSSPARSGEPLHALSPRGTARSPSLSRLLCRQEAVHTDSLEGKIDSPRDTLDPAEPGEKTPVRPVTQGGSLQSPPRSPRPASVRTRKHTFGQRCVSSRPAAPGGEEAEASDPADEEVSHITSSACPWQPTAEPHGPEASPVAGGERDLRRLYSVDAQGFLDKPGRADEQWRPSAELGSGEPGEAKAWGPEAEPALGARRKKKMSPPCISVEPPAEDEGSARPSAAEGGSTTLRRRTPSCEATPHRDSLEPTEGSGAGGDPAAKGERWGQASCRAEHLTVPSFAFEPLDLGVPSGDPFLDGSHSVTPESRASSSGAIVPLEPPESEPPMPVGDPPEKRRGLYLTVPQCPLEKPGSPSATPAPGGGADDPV
T2 sequence (Q9P0X4 whole entry): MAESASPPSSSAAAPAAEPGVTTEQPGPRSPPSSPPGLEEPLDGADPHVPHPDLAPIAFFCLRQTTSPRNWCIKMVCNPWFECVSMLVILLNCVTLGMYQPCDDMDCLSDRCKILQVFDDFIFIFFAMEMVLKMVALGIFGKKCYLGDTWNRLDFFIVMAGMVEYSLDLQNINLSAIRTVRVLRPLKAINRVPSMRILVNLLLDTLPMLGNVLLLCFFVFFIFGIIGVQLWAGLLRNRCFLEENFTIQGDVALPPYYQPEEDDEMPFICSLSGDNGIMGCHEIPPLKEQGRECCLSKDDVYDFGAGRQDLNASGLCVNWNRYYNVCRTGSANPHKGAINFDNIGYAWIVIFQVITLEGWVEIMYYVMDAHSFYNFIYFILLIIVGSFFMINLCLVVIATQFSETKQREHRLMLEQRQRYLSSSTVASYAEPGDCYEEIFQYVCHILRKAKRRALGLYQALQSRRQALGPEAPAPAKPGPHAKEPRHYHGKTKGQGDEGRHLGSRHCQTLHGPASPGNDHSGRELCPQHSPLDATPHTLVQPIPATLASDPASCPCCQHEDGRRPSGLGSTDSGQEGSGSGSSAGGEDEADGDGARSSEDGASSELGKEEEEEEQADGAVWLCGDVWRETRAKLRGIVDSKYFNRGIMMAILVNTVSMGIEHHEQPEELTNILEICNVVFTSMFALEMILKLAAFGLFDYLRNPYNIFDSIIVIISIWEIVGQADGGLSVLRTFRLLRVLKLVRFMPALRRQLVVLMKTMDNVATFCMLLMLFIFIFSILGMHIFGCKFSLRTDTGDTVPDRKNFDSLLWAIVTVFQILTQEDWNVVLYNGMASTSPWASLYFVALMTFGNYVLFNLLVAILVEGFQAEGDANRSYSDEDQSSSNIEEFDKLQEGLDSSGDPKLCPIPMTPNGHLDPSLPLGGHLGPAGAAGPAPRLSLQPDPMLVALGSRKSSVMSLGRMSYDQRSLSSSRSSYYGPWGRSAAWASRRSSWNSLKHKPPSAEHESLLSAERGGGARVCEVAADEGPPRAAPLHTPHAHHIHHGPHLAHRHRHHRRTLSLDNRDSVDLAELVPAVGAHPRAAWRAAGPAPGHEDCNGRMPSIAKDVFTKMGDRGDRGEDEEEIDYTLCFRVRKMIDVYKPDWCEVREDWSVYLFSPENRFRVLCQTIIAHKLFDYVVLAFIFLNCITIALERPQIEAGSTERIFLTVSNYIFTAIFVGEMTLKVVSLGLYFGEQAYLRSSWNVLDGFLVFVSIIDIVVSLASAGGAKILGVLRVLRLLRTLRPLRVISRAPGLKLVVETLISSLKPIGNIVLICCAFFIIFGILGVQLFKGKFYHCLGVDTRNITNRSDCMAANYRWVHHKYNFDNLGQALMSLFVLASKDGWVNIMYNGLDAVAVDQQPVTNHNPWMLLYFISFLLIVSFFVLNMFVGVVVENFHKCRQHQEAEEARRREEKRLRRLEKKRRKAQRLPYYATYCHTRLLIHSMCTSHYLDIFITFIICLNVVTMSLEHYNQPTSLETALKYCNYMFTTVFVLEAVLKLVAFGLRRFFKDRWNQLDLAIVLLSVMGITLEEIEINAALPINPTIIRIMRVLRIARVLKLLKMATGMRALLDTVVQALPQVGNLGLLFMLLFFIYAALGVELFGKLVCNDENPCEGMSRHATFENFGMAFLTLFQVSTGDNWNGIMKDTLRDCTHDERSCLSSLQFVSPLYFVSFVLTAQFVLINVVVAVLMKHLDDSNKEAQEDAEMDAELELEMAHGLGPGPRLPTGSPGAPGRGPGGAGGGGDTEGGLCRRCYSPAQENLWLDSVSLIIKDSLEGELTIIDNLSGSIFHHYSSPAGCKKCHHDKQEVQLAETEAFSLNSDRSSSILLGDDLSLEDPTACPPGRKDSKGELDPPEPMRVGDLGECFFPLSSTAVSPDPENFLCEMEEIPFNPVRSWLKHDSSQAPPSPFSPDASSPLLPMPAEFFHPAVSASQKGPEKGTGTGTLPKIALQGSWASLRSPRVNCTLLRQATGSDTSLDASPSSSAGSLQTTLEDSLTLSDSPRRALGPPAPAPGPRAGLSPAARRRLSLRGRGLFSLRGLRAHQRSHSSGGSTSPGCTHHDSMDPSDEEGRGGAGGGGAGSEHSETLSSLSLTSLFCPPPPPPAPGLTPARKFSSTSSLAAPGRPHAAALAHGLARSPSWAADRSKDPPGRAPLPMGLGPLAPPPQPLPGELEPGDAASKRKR

CC1CC(=O)C=C(NC(=O)c2cccc(OC(F)(F)F)c2)C1 (centres unmarked) [ABA58]
Effect on whole cell capacitance (human Cav3.2; 50 μM, HEK 293-Cav3.2 cells): no significant changes; also recorded: no effect on cell capacitance

CC1CC(=O)C=C(NC(=O)c2ccccc2C(F)(F)F)C1 (centres unmarked) [IAA61, N-(5-methyl-3-oxocyclohex-1-en-1-yl)-2-(trifluoromethyl) benzamide]
Effect on Na+ current density [1]: no noticeable effect
Effect on T-type Ca2+ current density (T-type Ca^2+ channels; [2]): no effect

CC1CC(=O)C=C(NC(=O)c2cc(C(F)(F)F)cc(C(F)(F)F)c2)C1 (centres unmarked) [IAA65, N-(5-methyl-3-oxocyclohex-1-en-1-yl)-3,5-bis(trifluoromethyl) benzamide]
Effect on Na+ current density [1]: no noticeable effect; also recorded: no effect on the Na^+ current densities
Reversal of the effect on T-type Ca2+ current density after drug washout (T-type Ca^2+ channels; 50 μM, 5 min washout): no significant recovery; also recorded: did not reverse the drug effect
Effect on T-type Ca2+ current density (T-type Ca^2+ channels; [2]): significant reduction
IC50 (T-type Ca^2+ channels; differentiated ND7/23 cells, read-out: IC50 on T-type Ca2+ current densities): 10.6 µM
Effect on activation time constant (τ) (human Cav3.3; 10 μM): rightward shift; also recorded: significant increase
Effect on inactivation time constant (τ) (human Cav3.3; 10 μM): significant reduction
Effect on steady-state inactivation (human Cav3.3; 10 μM): no effect
Effect on voltage-current relationship (human Cav3.3; 10 μM): considerable reduction
Shift in voltage-dependence of T-type Ca2+ currents (human Cav3.3; 10 μM): no significant shift
Effect on cell capacitance (human Cav3.3; 1-50 μM): no effect on call capacitance; also recorded: no effect on cell capacitance
Effect on T-type Ca2+ current density (human Cav3.3; [3]): significant reduction
V1/2 of steady-state inactivation (Boltzmann fit) (human Cav3.3; treated cells, 10 μM): −58.5±2.1 mV
Effect on activation time constant (τ) (human Cav3.2; 10 μM): no significant changes; also recorded: no effect
Effect on inactivation time constant (τ) (human Cav3.2; 10 μM): no effect on the inactivation τ
Effect on peak current (human Cav3.2; 10 μM): significant reduction
Shift in voltage-dependence of T-type Ca2+ currents (human Cav3.2; 10 μM): without significant changes; also recorded: no significant shift
Shift of the steady-state inactivation curve (human Cav3.2; 10 μM): leftward shift
Effect on cell capacitance (human Cav3.2; 1-50 μM): no effect on cell capacitance
Effect on T-type Ca2+ current density (human Cav3.2; [3]): significant reduction
V1/2 of steady-state inactivation (Boltzmann fit) (human Cav3.2; treated cells, 10 μM): −70.2±1.0 mV

CC1CC(=O)C=C(NC(=O)c2cccc(C(F)(F)F)c2)C1 (centres unmarked) [IAB15, N-(5-methyl-3-oxocyclohex-1-en-1-yl)-3-(trifluoromethyl) benzamide]
Effect on Na+ current density [1]: no noticeable effect; also recorded: no effect on the Na^+ current densities
Effect on T-type Ca2+ current density (T-type Ca^2+ channels; [2]): significant reduction

CC1CC(=O)C=C(NC(=O)c2ccccc2F)C1 (centres unmarked) [IAB67, 2-fluoro-N-(5-methyl-3-oxocyclohex-1-en-1-yl) benzamide]
Effect on T-type Ca2+ current density (T-type Ca^2+ channels; [2]): None of the tested compounds has any effect
Effect on T-type Ca2+ current density (T-type Ca^2+ channels; 50 μM, differentiated ND7/23 cells, listed as IAB65): no effect on Ca^2+ current densities

CC(C)C1CC(=O)C=C(NC(=O)c2ccc(C(F)(F)F)cc2)C1 (centres unmarked) [IAC41, N-(5-isopropyl-3-oxocyclohex-1-en-1-yl)-4-(trifluoromethyl) benzamide]
Effect on T-type Ca2+ current density (T-type Ca^2+ channels; [2]): None of the tested compounds has any effect; also recorded: no effect on Ca^2+ current densities

Cc1cc(C)cc(C(=O)NC2=CC(=O)CC(C)C2)c1 (centres unmarked) [RHB59, 3,5-dimethyl-N-(5-methyl-3-oxocyclohex-1-en-1-yl)benzamide]
Effect on T-type Ca2+ current density (human Cav3.2; [4]): No inhibitory effect

O=C1C=C(NC(=O)c2cccc(C(F)(F)F)c2F)CC(C(F)(F)F)C1 (centres unmarked) [RHB103]
Effect on T-type Ca2+ current density (human Cav3.2; [4]): No inhibitory effect

O=C1C=C(NC(=O)c2cc(F)cc(F)c2)CC(C(F)(F)F)C1 (centres unmarked) [RHB107]
Effect on whole cell capacitance (human Cav3.2; 50 μM, HEK 293-Cav3.2 cells): no significant changes; also recorded: no effect on cell capacitance

O=C1C=C(NC(=O)c2cc(C(F)(F)F)cc(C(F)(F)F)c2)CC(C(F)(F)F)C1 (centres unmarked) [RHB-77, N-(3-oxo-5-(trifluoromethyl)cyclohex-1-en-1-yl)-3,5-bis(trifluoromethyl)benzamide]
inhibition at 50 µM (human Cav3.2; HEK293, 50 μM, Cav3.2 transfected HEK 293 cells, read-out: Inhibition of calcium currents on T-type calcium channels): 90%
Concentration dependence of the inhibition of T-type Ca2+ currents (human Cav3.2; HEK 293-Cav3.2 cells): significant inhibition of T-type calcium currents in a concentration-dependent manner

CC1CC(=O)C=C(NC(=O)c2ccc(C(F)(F)F)cc2)C1 (centres unmarked) [THA40, N-(5-methyl-3-oxocyclohex-1-en-1-yl)-4-(trifluoromethyl) benzamide]
Effect on T-type Ca2+ current density (T-type Ca^2+ channels; [2]): None of the tested compounds has any effect
Effect on T-type Ca2+ current density (T-type Ca^2+ channels; 50 μM, differentiated ND7/23 cells, listed as TTA40): no effect on Ca^2+ current densities
